In patent US20250179079A1, “HEXAHYDROPYRIDO[4,3-B]INDOLYL KETONE DERIVATIVES USEFUL AS CGAS MODULATORS” (Ventus Therapeutics U.S., Inc., priority 2022, published 2025) one finds IC50 and solubility data, which are given here for twelve molecules.

One series deals with h-cGAS (Homo sapiens (Human), UniProt Q8N884). The series can be described thus: hcGAS Kinase-Glo assay. Type of series: biochemical.
Series [1] can be described thus: Solubility (e.g., in phosphate buffered saline (PBS)). Type of series: physicochemical. The conditions noted are these: aqueous buffer, Table D.
Where [2] appears, read: Table D comparative data, IC50 range designation, read-out: hcGAS (IC50).
Setting [3] is: Table D comparative data, raw data in parentheses, read-out: hcGAS (IC50).
The mark [4] stands for this setting: Table C, IC50 range designation, read-out: hcGAS IC50.
[5] abbreviates: Table C, raw data in parentheses, read-out: hcGAS IC50.

Each structure is given as a SMILES string. ≈ marks a conversion by molar mass, not a printed value. Read-outs that look alike come from different tables or passages of the source.

Sequence of h-cGAS (Q8N884 whole entry): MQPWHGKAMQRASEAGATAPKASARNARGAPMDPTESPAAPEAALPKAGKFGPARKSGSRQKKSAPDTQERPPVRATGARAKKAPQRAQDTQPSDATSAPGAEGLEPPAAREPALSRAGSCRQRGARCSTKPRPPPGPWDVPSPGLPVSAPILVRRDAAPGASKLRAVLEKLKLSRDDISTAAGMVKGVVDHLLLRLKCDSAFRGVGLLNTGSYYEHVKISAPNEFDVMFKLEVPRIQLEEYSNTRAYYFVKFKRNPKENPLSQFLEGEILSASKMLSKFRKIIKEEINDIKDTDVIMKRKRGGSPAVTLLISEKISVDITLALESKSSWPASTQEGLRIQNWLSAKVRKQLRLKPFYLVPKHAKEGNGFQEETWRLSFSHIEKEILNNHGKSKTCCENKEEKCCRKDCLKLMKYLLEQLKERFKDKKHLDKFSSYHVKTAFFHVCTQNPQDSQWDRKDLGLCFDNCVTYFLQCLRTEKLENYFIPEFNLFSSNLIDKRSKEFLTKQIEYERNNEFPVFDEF

In the case of `Cn1ccc(-c2cc(Cl)c(Cl)c3[nH]c4c(c23)CN(C(=O)CO)CC4)n1` [Comparative Example B, 1-(6,7-dichloro-9-(1-methyl-1H-pyrazol-3-yl)-1,3,4,5-tetrahydro-2H-pyrido[4,3-b]indol-2-yl)-2-hydroxyethan-1-one, reference compound], the IC50 at h-cGAS (setting [2]) is less than 100 nM; at h-cGAS (setting [3]) it was 35.2 nM. This molecule displayed a solubility in series [1] of 8.1 µM (≈ 3.07 µg/mL). `Cn1ccc(-c2cc(Cl)c(Cl)c3nn4c(c23)CN(C(=O)CO)CC4)n1` [Comparative Example D, 1-(7,8-dichloro-10-(1-methyl-1H-pyrazol-3-yl)-3,4-dihydropyrazino[1,2-b]indazol-2(1H)-yl)-2-hydroxyethan-1-one, reference compound]: in series [1], the solubility amounted to 53 µM (≈ 20.2 µg/mL).

Turning to `COc1ccc(C(=O)N2CCc3[nH]c4c(Cl)c(Cl)ccc4c3C2)nn1` [Compound 56, (6,7-dichloro-1,3,4,5-tetrahydro-2H-pyrido[4,3-b]indol-2-yl)(6-methoxypyridazin-3-yl)methanone], the IC50 on h-cGAS (setting [4]) is 1000 to 5000 nM; on h-cGAS (setting [5]), 4350 nM. Regarding `NCC(=O)N1Cc2[nH]c3c(Cl)c(Cl)ccc3c2C1` [Compound 65, 2-amino-1-(5,6-dichloro-3,4-dihydropyrrolo[3,4-b]indol-2(1H)-yl)ethan-1-one], the IC50 is 500 to 1000 nM at h-cGAS (setting [4]) and 933 nM at h-cGAS (setting [5]). As to `CNc1cnc(C(=O)N2CCc3[nH]c4c(Cl)c(Cl)ccc4c3C2C)nc1` (racemic) [Rac-46, (6,7-dichloro-1-methyl-1,3,4,5-tetrahydro-2H-pyrido[4,3-b]indol-2-yl)(5-(methylamino)pyrimidin-2-yl)methanone], the IC50 on h-cGAS (setting [5]) was 51.4 nM; at h-cGAS (read-out: hcGAS activity), less than 100 nM. Regarding `O=C(CO)N1CCn2nc3c(Cl)c(Cl)ccc3c2C1` [Comparative Example C, 1-(7,8-dichloro-3,4-dihydropyrazino[1,2-b]indazol-2(1H)-yl)-2-hydroxyethan-1-one, reference compound], the results for the IC50 on h-cGAS (setting [2]) and on h-cGAS (setting [3]) were more than 5000 nM and 12800 nM, respectively. The same molecule returned a solubility in series [1] of 76 µM (≈ 22.8 µg/mL). Take `CC1c2c([nH]c3c(Cl)c(Cl)ccc23)CCN1C(=O)NO` (racemic) [Rac-97, 6,7-dichloro-N-hydroxy-1-methyl-1,3,4,5-tetrahydro-2H-pyrido[4,3-b]indole-2-carboxamide]: the IC50 at h-cGAS (setting [5]) is 821 nM. Turning to `O=C(CO)N1CCc2[nH]c3c(Cl)c(Cl)ccc3c2C1` [Comparative Example A, 1-(6,7-dichloro-1,3,4,5-tetrahydro-2H-pyrido[4,3-b]indol-2-yl)-2-hydroxyethan-1-one], in series [1], the solubility worked out at 2 µM (≈ 0.598 µg/mL). On to `COc1cnc(C(=O)N2CCc3[nH]c4c(Cl)c(Cl)cc(SC)c4c3C2C)nc1` (racemic) [Rac-101, (6,7-dichloro-1-methyl-9-(methylthio)-1,3,4,5-tetrahydro-2H-pyrido[4,3-b]indol-2-yl)(5-methoxypyrimidin-2-yl)methanone], for which the IC50 on h-cGAS (setting [5]) is 409 nM. In the case of `CNCC(=O)N1CCc2[nH]c3c(Cl)c(Cl)ccc3c2C1` [Compound 64, 1-(6,7-dichloro-1,3,4,5-tetrahydro-2H-pyrido[4,3-b]indol-2-yl)-2-(methylamino)ethan-1-one], the IC50 is 1490 nM at h-cGAS (setting [5]) and 1000 to 5000 nM on h-cGAS (read-out: hcGAS activity).

In the case of `C[C@@H]1c2c([nH]c3c(Cl)c(Cl)ccc23)CCN1C(=O)CN` (single isomer, unassigned) [51A*], the IC50 at h-cGAS (setting [4]) was more than 5000 nM; at h-cGAS (setting [5]), more than 10000 nM. In series [1], `C[C@H]1c2c([nH]c3c(Cl)c(Cl)ccc23)CCN1C(=O)CO` [Compound 157, (S)-1-(6,7-dichloro-1-methyl-1,3,4,5-tetrahydro-2H-pyrido[4,3-b]indol-2-yl)-2-hydroxyethan-1-one] showed a solubility of 42 µM (≈ 13.2 µg/mL).

What is called solubility is how much of the substance goes into solution per volume. Low values mean a poorly soluble substance, high ones a readily soluble substance.
